{
  "source": "patent US8217029B2",
  "about": "“Oxazolidinone antibiotics” (Actelion Pharmaceuticals Ltd, priority 2007, dated 2012)",
  "tested_on": "S aureus A798",
  "test": "Minimal inhibitory concentration (MIC), microdilution method in cation-adjusted Mueller-Hinton Broth following NCCLS guidelines",
  "type": "cell-based",
  "conditions": "pH of test medium 7.2-7.3",
  "summary_of_the_method": "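MICs (mg/l) came from NCCLS-guided microdilution, using cation-adjusted Mueller-Hinton medium adjusted to pH 7.2-7.3.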",
  "data": [
    {"compound": "COc1ccc2ncc(F)c(N3CC(NC[C@@H]4CN(c5ccc6c(c5)NC(=O)CO6)C(=O)O4)C3)c2n1", "note": "[Example 45, 6-((R)-5-{[1-(3-Fluoro-6-methoxy-[1,5]naphthyridin-4-yl)-azetidin-3-ylamino]-methyl}-2-oxo-oxazolidin-3-yl)-4H-benzo[1,4]oxazin-3-one]", "values": [
      {"measurement": "MIC", "value": "≤ 0.031", "unit": "µg/mL"}
    ]}
  ]
}
